This is an account of results in ChEMBL document CHEMBL3779869, “Synthesis, identification, and biological activity of metabolites of two novel selective S1P1 agonists” (Bioorg Med Chem, 2016).

As usually defined, the EC50 is the concentration at which the effect is half-maximal. A low value points to greater potency.

Series [1] deals with Sphingosine 1-phosphate receptor 1 (Homo sapiens, UniProt P21453). The experiment in a line: Agonist activity at S1P1 receptor (unknown origin) expressed in CHO cells incubated for 2 hrs by HTRF-IP1 assay. The series is classed as cell-based. On the technique in general: In TR-FRET formats the signal depends on donor and acceptor labels being close together.
The target of series [2] is Sphingosine 1-phosphate receptor 3 (Homo sapiens, UniProt Q99500). As to the kind of experiment: Agonist activity at S1P3 receptor (unknown origin) expressed in CHO cells incubated for 2 hrs by HTRF-IP1 assay. The series is classed as cell-based.
The species named for series [3] is Homo sapiens. The experiment in a line: Selectivity ratio of EC50 for S1P3 receptor (unknown origin) to EC50 for S1P1 receptor (unknown origin).
In series [4] the test system is Blood. As to the kind of experiment: Drug metabolism in Sprague-Dawley rat blood assessed as formation of 2-amino-2-(2-(4'-(2-(2-hydroxypropyl)oxazol-4-yl)biphenyl-4-yl)ethyl)propane-1,3-diol hydrochloride at 3 mg/kg, po measured at 0.08 to 48 hrs by LC-MS/MS analysis. The series is classed as ADME, organism-based. As to conditions: in vivo.
Series [5] deals with Rattus norvegicus. As to the kind of experiment: Lymphopenia activity in Sprague-Dawley rat assessed as decrease in lymphocytes in peripheral blood at 3 mg/kg, po after 24 hrs by hematology analyzer. It counts as functional, organism-based.
Series [6] relates to Blood. The experiment in a line: Drug metabolism in Sprague-Dawley rat blood assessed as formation of 2-amino-2-(2-(4'-(2-(1-hydroxyethyl)oxazol-4-yl)biphenyl-4-yl)ethyl)propane-1,3-diol hydrochloride at 3 mg/kg, po measured at 0.08 to 48 hrs by LC-MS/MS analysis. The series is classed as ADME, organism-based. The settings on record: in vivo.
Series [7] has as its system Blood. As to the kind of experiment: Drug level in Sprague-Dawley rat blood assessed as compound formation treated with SYL930 at 3 mg/kg, po measured at 0.08 to 48 hrs by LC-MS/MS analysis. It counts as ADME, organism-based. As to conditions: in vivo.
Series [8] relates to Blood. As to the kind of experiment: Retention time of compound in Sprague-Dawley rat blood treated with SYL930 at 3 mg/kg, po by LC-MS/MS analysis. The series is classed as ADME, organism-based. As to conditions: in vivo.
In series [9] the test system is Blood. The experiment in a line: Drug level in Sprague-Dawley rat blood assessed as compound formation treated with SYL927 at 3 mg/kg, po measured at 0.08 to 48 hrs by LC-MS/MS analysis. As to conditions: in vivo. It counts as ADME, organism-based.
In series [10] the test system is Blood. As to the kind of experiment: Retention time of compound in Sprague-Dawley rat blood treated with SYL927 at 3 mg/kg, po by LC-MS/MS analysis. It counts as ADME, organism-based. As to conditions: in vivo.

Each structure is given as a SMILES string. The source made the active and inactive calls. The rule behind the calls is not given here.

Sequence of Sphingosine 1-phosphate receptor 3 (Q99500 whole entry): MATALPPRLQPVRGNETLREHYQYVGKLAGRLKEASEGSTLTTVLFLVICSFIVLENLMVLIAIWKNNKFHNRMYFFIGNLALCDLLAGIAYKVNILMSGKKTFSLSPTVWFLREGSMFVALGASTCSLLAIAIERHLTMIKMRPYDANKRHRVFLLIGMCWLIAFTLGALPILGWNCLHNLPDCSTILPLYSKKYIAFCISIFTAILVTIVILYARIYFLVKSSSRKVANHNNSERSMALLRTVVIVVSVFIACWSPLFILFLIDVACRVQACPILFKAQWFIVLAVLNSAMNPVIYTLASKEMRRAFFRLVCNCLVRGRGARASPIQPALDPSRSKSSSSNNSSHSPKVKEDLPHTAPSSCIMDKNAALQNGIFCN
Sequence of Sphingosine 1-phosphate receptor 1 (P21453 whole entry): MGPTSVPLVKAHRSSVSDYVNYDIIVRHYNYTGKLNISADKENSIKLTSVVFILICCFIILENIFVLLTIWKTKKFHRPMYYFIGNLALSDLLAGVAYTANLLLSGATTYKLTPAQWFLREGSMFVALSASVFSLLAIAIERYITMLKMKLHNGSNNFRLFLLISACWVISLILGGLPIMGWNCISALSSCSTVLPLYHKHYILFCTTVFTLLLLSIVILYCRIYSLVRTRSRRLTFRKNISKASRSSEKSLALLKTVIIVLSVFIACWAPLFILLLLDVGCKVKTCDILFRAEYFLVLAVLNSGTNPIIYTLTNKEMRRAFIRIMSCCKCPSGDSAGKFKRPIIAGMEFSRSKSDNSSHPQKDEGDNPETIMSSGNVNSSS

As to `CCCc1nc(-c2ccc(-c3ccc(CCC(N)(CO)CO)cc3)cc2)co1.Cl`, the figures for the EC50 in series [1] and in series [2] were 1610 nM and greater than 10 µM, respectively. Besides, in series [3], the Ratio EC50 is greater than 6. For the same compound, the Drug metabolism entry in [4] was “metabolite_detected”. In addition, in [5], the outcome was Active.
Consider `CCc1nc(-c2ccc(-c3ccc(CCC(N)(CO)CO)cc3)cc2)co1.Cl`, for which the EC50 was greater than 10000 nM in series [1] and greater than 10 µM in [2]. For the same compound, the Drug metabolism result in series [6] was “metabolite_detected”. In [5], the result was Active.
Take `CC(O)Cc1nc(-c2ccc(-c3ccc(CCC(N)(CO)CO)cc3)cc2)co1.Cl` (stereo unspecified): the concentration giving a half-maximal response (EC50) is 1520 nM in series [1] and greater than 10 µM in [2]. In addition, the Ratio EC50 in [3] is greater than 6. The Drug metabolism result in [7] was “metabolite_detected”. In series [5], the outcome was Active. Besides, in [8], the Retention_time was determined as 13 min.
Take `CC(O)c1nc(-c2ccc(-c3ccc(CCC(N)(CO)CO)cc3)cc2)co1.Cl` (stereo unspecified): the EC50 was greater than 10000 nM in series [1] and greater than 10 µM in series [2]. Besides, the Drug metabolism entry in [9] is on record as “metabolite_detected”. The same compound registered a Retention_time in series [10] of 6.6 min. Besides, the outcome in [5] was Active.
Regarding `CCCc1nc(-c2ccc(-c3ccc(CCC(N)(CO)COP(=O)(O)O)cc3)cc2)co1` (stereo unspecified), the EC50 in [1] came out at 13.3 nM; in [2] it was 0.484 µM. The Ratio EC50 in series [3] is 36.
As to `CCc1nc(-c2ccc(-c3ccc(CCC(N)(CO)COP(=O)(O)O)cc3)cc2)co1` (stereo unspecified), the figures for the EC50 in series [1] and in [2] were 7 nM and 1.06 µM, respectively. The Ratio EC50 in [3] stood at 151.
